{"source": "patent US10208064B2", "about": "“Inhibitors of the renal outer medullary potassium channel” (MERCK SHARP & DOHME CORP., priority 2014, dated 2019)", "target": "ROMK (Kir1.1) channel (Homo sapiens (Human), UniProt P48048)", "sequence (P48048 whole entry)": "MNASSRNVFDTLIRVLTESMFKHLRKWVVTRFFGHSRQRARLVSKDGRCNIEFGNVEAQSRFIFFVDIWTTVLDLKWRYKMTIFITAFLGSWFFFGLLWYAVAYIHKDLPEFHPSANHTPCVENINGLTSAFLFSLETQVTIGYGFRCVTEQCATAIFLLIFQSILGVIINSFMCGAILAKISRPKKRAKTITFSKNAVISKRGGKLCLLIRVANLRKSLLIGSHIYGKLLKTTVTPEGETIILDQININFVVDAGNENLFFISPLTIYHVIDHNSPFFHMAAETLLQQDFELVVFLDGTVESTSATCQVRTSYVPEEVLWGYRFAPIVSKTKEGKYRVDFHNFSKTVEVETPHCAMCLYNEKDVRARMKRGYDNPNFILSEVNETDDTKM", "assay": "Thallium Flux Assay", "format": "cell-based", "method": "The following Thallium Flux Assay was performed on each of the final product compounds in the Examples.\nA Thallium Flux Assay was performed on the compounds of the Examples. This assay has been described previously; see, e.g., PCT Published Application WO 2013/062900."}
{"smiles": "C[C@H]1CC2(CCN(C[C@@H](O)c3ccc4c(ccc5nnnn54)c3)CC2)C(=O)N1C1=CC(=O)OC1", "note": "[Example 19, (S)-8-((S)-2-hydroxy-2-(tetrazolo[1,5-a]quinolin-7-yl)ethyl)-3-methyl-2-(5-oxo-2,5-dihydrofuran-3-yl)-2,8-diazaspiro[4.5]decan-1-one]", "values": [{"measurement": "IC50", "result": 10, "unit": "nM"}]}
{"smiles": "CC1=C(N2CCC3(CCN(C[C@@H](O)c4ccc5c(c4)Cn4nnnc4-5)CC3)C2=O)COC1=O", "note": "[Example 9, (S)-8-(2-hydroxy-2-(5H-tetrazolo[5,1-a]isoindol-7-yl)ethyl)-2-(4-methyl-5-oxo-2,5-dihydrofuran-3-yl)-2,8-diazaspiro[4.5]decan-1-one]", "values": [{"measurement": "IC50", "result": 19, "unit": "nM"}]}
{"smiles": "CC1=C(N2CCC3(CCN(C(CO)c4ccc5c(ccc6nnnn65)c4)CC3)C2=O)COC1=O", "note": "(racemic) [Example 28, 8-(2-hydroxy-1-(tetrazolo[1,5-a]quinolin-7-yl)ethyl)-2-(4-methyl-5-oxo-2,5-dihydrofuran-3-yl)-2,8-diazaspiro[4.5]decan-1-one]", "values": [{"measurement": "IC50", "result": 18, "unit": "nM"}]}
{"smiles": "CC1=C(N2CCC3(CCN(C[C@H](O)c4ccc5c(c4)[C@@H](C)n4nnnc4-5)CC3)C2=O)COC1=O", "note": "[Example 27C, 8-((R)-2-hydroxy-2-((R)-5-methyl-5H-tetrazolo[5,1-a]isoindol-7-yl)ethyl)-2-(4-methyl-5-oxo-2,5-dihydrofuran-3-yl)-2,8-diazaspiro[4.5]decan-1-one]", "values": [{"measurement": "IC50", "result": 36, "unit": "nM"}]}
{"smiles": "CC1=C(N2CCC3(CCN(CCc4ccc5c(c4)Cn4nnnc4-5)CC3)C2=O)COC1=O", "note": "[Example 30, 8-(2-(5H-tetrazolo[5,1-a]isoindol-7-yl)ethyl)-2-(4-methyl-5-oxo-2,5-dihydrofuran-3-yl)-2,8-diazaspiro[4.5]decan-1-one]", "values": [{"measurement": "IC50", "result": 6, "unit": "nM"}]}
{"smiles": "C[C@@H]1CC2(CCN(C[C@H](O)c3ccc4c(ccc5nnnn54)c3)CC2)C(=O)N1C1=CC(=O)OC1", "note": "[Example 16, (R)-8-((R)-2-hydroxy-2-(tetrazolo[1,5-a]quinolin-7-yl)ethyl)-3-methyl-2-(5-oxo-2,5-dihydrofuran-3-yl)-2,8-diazaspiro[4.5]decan-1-one]", "values": [{"measurement": "IC50", "result": 32, "unit": "nM"}]}
{"smiles": "CC1=C(N2CC[C@@]3(CCN(C[C@@H](O)c4ccc5c(c4)Cn4nnnc4-5)C[C@@H]3F)C2=O)COC1=O", "note": "[Example 5, (5S,6R)-6-fluoro-8-((S)-2-hydroxy-2-(5H-tetrazolo[5,1-a]isoindol-7-yl)ethyl)-2-(4-methyl-5-oxo-2,5-dihydrofuran-3-yl)-2,8-diazaspiro[4.5]decan-1-one]", "values": [{"measurement": "IC50", "result": 111, "unit": "nM"}]}
{"smiles": "CC1=C(N2CCC3(CCN(CC(O)c4ccc5c(c4)[C@@H](C)n4nnnc4-5)CC3)C2=O)COC1=O", "note": "(stereo partly drawn) [Example 27B, 8-(2-hydroxy-2-((R)-5-methyl-5H-tetrazolo[5,1-α]isoindol-7-yl)ethyl)-2-(4-methyl-5-oxo-2,5-dihydrofuran-3-yl)-2,8-diazaspiro[4.5]decan-1-one]", "values": [{"measurement": "IC50", "result": 27, "unit": "nM"}]}
{"smiles": "CC1=C(N2CCC3(CCN(C[C@H](O)c4ccc5c(c4C)Cn4nnnc4-5)CC3)C2=O)COC1=O", "note": "[Example 23, (R)-8-(2-hydroxy-2-(6-methyl-5H-tetrazolo[5,1-a]isoindol-7-yl)ethyl)-2-(4-methyl-5-oxo-2,5-dihydrofuran-3-yl)-2,8-diazaspiro[4.5]decan-1-one]", "values": [{"measurement": "IC50", "result": 17, "unit": "nM"}]}
{"smiles": "C[C@H]1CC2(CCN(C[C@H](O)c3ccc4c(c3)CCc3nnnn3-4)CC2)C(=O)N1C1=CC(=O)OC1", "note": "[Example 13, (S)-8-((R)-2-(4,5-dihydrotetrazolo[1,5-a]quinolin-7-yl)-2-hydroxyethyl)-3-methyl-2-(5-oxo-2,5-dihydrofuran-3-yl)-2,8-diazaspiro[4.5]decan-1-one]", "values": [{"measurement": "IC50", "result": 23, "unit": "nM"}]}
{"smiles": "CC1=C(N2CCC3(CCN(C[C@H](O)c4ccc5c(ccc6nnnn65)c4)CC3)C2=O)COC1=O", "note": "[Example 20, (R)-8-(2-hydroxy-2-(tetrazolo[1,5-a]quinolin-7-yl)ethyl)-2-(4-methyl-5-oxo-2,5-dihydrofuran-3-yl)-2,8-diazaspiro[4.5]decan-1-one]", "values": [{"measurement": "IC50", "result": 11, "unit": "nM"}]}
{"smiles": "CC1=C(N2CCC3(CCN(C(CO)c4ccc5c(c4)CCc4nnnn4-5)CC3)C2=O)COC1=O", "note": "(stereo not drawn) [Example 29, 8-(1-(4,5-dihydrotetrazolo[1,5-a]quinolin-7-yl)-2-hydroxyethyl)-2-(4-methyl-5-oxo-2,5-dihydrofuran-3-yl)-2,8-diazaspiro[4.5]decan-1-one]", "values": [{"measurement": "IC50", "result": 421, "unit": "nM"}]}
{"smiles": "CC1=C(N2CCC3(CCN(C[C@H](O)c4cc5c(cc4C4CC4)-c4nnnn4C5)CC3)C2=O)COC1=O", "note": "[Example 25, (R)-8-(2-(8-cyclopropyl-5H-tetrazolo[5,1-a]isoindol-7-yl)-2-hydroxyethyl)-2-(4-methyl-5-oxo-2,5-dihydrofuran-3-yl)-2,8-diazaspiro[4.5]decan-1-one]", "values": [{"measurement": "IC50", "result": 128, "unit": "nM"}]}
{"smiles": "CO[C@@H](CN1CCC2(CC1)CCN(C1=C(C)C(=O)OC1)C2=O)c1ccc2c(c1)Cn1nnnc1-2", "note": "[Example 31, (R)-8-(2-methoxy-2-(5H-tetrazolo[5,1-a]isoindol-7-yl)ethyl)-2-(4-methyl-5-oxo-2,5-dihydrofuran-3-yl)-2,8-diazaspiro[4.5]decan-1-one]", "values": [{"measurement": "IC50", "result": 239, "unit": "nM"}]}
{"smiles": "CC1=C(N2CCC3(CCN(C[C@H](O)c4ccc5c(c4C)CCc4nnnn4-5)CC3)C2=O)COC1=O", "note": "[Example 10, (R)-8-(2-hydroxy-2-(6-methyl-4,5-dihydrotetrazolo[1,5-a]quinolin-7-yl)ethyl)-2-(4-methyl-5-oxo-2,5-dihydrofuran-3-yl)-2,8-diazaspiro[4.5]decan-1-one]", "values": [{"measurement": "IC50", "result": 46, "unit": "nM"}]}
{"smiles": "CC1=C(N2CCC3(CCN(C[C@@H](O)c4ccc5c(ccc6nnnn65)c4)CC3)C2=O)COC1=O", "note": "[Example 21, (S)-8-(2-hydroxy-2-(tetrazolo[1,5-a]quinolin-7-yl)ethyl)-2-(4-methyl-5-oxo-2,5-dihydrofuran-3-yl)-2,8-diazaspiro[4.5]decan-1-one]", "values": [{"measurement": "IC50", "result": 19, "unit": "nM"}]}
{"smiles": "CC1=C(N2CC[C@]3(CCN(C[C@@H](O)c4ccc5c(c4)Cn4nnnc4-5)C[C@H]3F)C2=O)COC1=O", "note": "[Example 6, (5R,6S)-6-fluoro-8-((S)-2-hydroxy-2-(5H-tetrazolo[5,1-a]isoindol-7-yl)ethyl)-2-(4-methyl-5-oxo-2,5-dihydrofuran-3-yl)-2,8-diazaspiro[4.5]decan-1-one]", "values": [{"measurement": "IC50", "result": 40, "unit": "nM"}]}
{"smiles": "C[C@H]1CC2(CCN(C[C@H](O)c3ccc4c(ccc5nnnn54)c3)CC2)C(=O)N1C1=CC(=O)OC1", "note": "[Example 17, (S)-8-((R)-2-hydroxy-2-(tetrazolo[1,5-a]quinolin-7-yl)ethyl)-3-methyl-2-(5-oxo-2,5-dihydrofuran-3-yl)-2,8-diazaspiro[4.5]decan-1-one]", "values": [{"measurement": "IC50", "result": 20, "unit": "nM"}]}
{"smiles": "C[C@H]1CC2(CCN(C[C@@H](O)c3ccc4c(c3)CCc3nnnn3-4)CC2)C(=O)N1C1=CC(=O)OC1", "note": "[Example 15, (S)-8-((S)-2-(4,5-dihydrotetrazolo[1,5-a]quinolin-7-yl)-2-hydroxyethyl)-3-methyl-2-(5-oxo-2,5-dihydrofuran-3-yl)-2,8-diazaspiro[4.5]decan-1-one]", "values": [{"measurement": "IC50", "result": 14, "unit": "nM"}]}
{"smiles": "CC1=C(N2CCC3(CCN(C[C@H](O)c4ccc5c(c4)Cn4nnnc4-5)CC3)C2=O)COC1=O", "note": "[Example 8, (R)-8-(2-hydroxy-2-(5H-tetrazolo[5,1-a]isoindol-7-yl)ethyl)-2-(4-methyl-5-oxo-2,5-dihydrofuran-3-yl)-2,8-diazaspiro[4.5]decan-1-one]", "values": [{"measurement": "IC50", "result": 13, "unit": "nM"}]}
{"smiles": "CC1=C(N2CC[C@@]3(CCN(C[C@H](O)c4ccc5c(c4)Cn4nnnc4-5)C[C@@H]3F)C2=O)COC1=O", "note": "[Example 3, (5S,6R)-6-fluoro-8-((R)-2-hydroxy-2-(5H-tetrazolo[5,1-a]isoindol-7-yl)ethyl)-2-(4-methyl-5-oxo-2,5-dihydrofuran-3-yl)-2,8-diazaspiro[4.5]decan-1-one]", "values": [{"measurement": "IC50", "result": 35, "unit": "nM"}]}
